Test results as given in patent US5747239A, “Synthetic peptides specific for the detection of antibodies to HCV, diagnosis of HCV infection and preventions thereof as vaccines” (United Biomedical, Inc., priority 1994, dated 1998).

Assays:
Assay type in all cases: binding, human
[1] = test system: antibodies to HCV; test: Peptide ELISA for relative immunoreactivity, 8 member HCV serum panel (Panel I); details: NS-3 peptides (Tables 4B-4D), relative to pep3 (279A)
[2] = test system: antibodies to HCV; test: NS-1 peptide ELISA, early and late HCV infection panels
Experimental: In addition, all sixteen NS-1 peptides were tested on panels of samples representing HCV-antibody positive donors (n=9) in an early stage of infection, namely plasmapheresis donors with the first occurrence of an ALT level >100 i.u./L, and those asymptomatic individuals (n=14) disqualified from blood donation because of a reactive result for anti-HIV or HBc, for whom the anti-HCV result probably represents a past infection.
These select panels were chosen from hundreds of HCV positive sera for their ability to recognize NS-1 antigens. For both groups, peptide designated as 232A (pep2) had the greatest immunoreactivity. Using pep2 as a standard, the relative immunoreactivity of each peptide was calculated (Table 3C).

[3] = test system: antibodies to HCV; test: NS-1 peptide ELISA, Panel II (asymptomatic individuals, mainland China and Taiwan); details: for % IP: NS-1 peptides, Panel II (CH1-CH7), relative to pep1 (231C)
Experimental: Wells of 96-well plates were coated for 1 hour at 37° C. with each of the 16 peptides (designated as peptides 241A-C, 231A-E, 232A-D, 233C, 234A-C), synthesized according to sequences derived from the NS-1 region (Table 3A), at 5 ug/mL at 100 uL per well in 10 mM NaHCO3 buffer, pH 9.5. Each peptide's immunoreactivity was measured as previously described (see Example 1), using an 8 member serum panel (Panel I).
A panel of serum samples from individuals coming from regions in which hepatitis C is endemic, namely mainland China and Taiwan, were tested for evidence of reactivity to these NS-1 protein derived peptides. Twenty-four samples were chosen from individuals who had no recognizable symptoms of non-A, non-B hepatitis and for whom the peptide based HCV EIA, Format C, as described in Example 11, was nonreactive. Seven of the 24 samples (29%) were reactive against one or more peptides from the NS-1 region, indicative of the presence of long term protective antibodies responsive to this region. This 7 member panel (designated as Panel II, CH1-CH7) was used to further characterize these NS-1 peptides for their immunoreactivity.
The peptide with the greatest reactivity against the serum Panel II again was pep1 (designated 231c in Table 3A). Using this peptide as a standard, the relative immunoreactivity for each of the other 15 peptides from the NS-1 region are calculated in Table 3A.

[4] = test system: antibodies to HCV; test: Peptide ELISA for relative immunoreactivity, 8 member HCV serum panel (Panel I)
Experimental: As an example to illustrate how relative (%) immunoreactivity for HCV synthetic peptides is measured, wells of 96-well plates are coated for 1 hour at 37° C., with each of the following peptides: IIH, V, VIIIE and pep11 at 5 ug/mL at 100 uL per well in 10 mM NaHCO3 buffer, pH 9.5. The peptide coated wells were then incubated with 250 uL of 3% by weight of gelatin in PBS in 37° C. for 1 hour to block non-specificprotein binding sites, followed by three washes with PBS containing 0.05% by volume of TWEEN 20 and then dried. The test specimens containing a panel of eight well-characterized HCV antibody positive patient sera were diluted with PBS containing 20% by volume normal goat serum, 1% by weight gelatin and 0.05% by volume TWEEN 20 at dilutions of 1:20 volume to volume, respectively. 200 uL of the diluted specimens were added to each of the wells and allowed to react for 15 minutes at 37° C.
The wells were then washed six times with 0.05% by volume TWEEN 20 in PBS in order to remove unbound antibodies. Horseradish peroxidase conjugated goat anti-human IgG was used as a second antibody tracer to bind with the HCV antibody-peptide antigen complex formed in positive wells. 100 uL of peroxidase labeled goat anti-human IgG at a dilution of 1:1800 in 1% by volume normal goat serum, 0.05% by volume TWEEN 20 in PBS was added to each well and incubated at 37° C. for another 15 minutes.
The wells were washed six times with 0.05% by volume TWEEN 20 PBS to remove unbound antibody and reacted with 100 uL of the substrate mixture containing 0.04% by weight orthophenylenediamine (OPD) and 0.12% by volume hydrogen peroxide in sodium citrate buffer, pH 5.0.
This substrate mixture was used to detect the peroxidase label by forming a colored product. Reactions were stopped by the addition of 100 uL of 1.0M H2 SO4 and the A492 mm measured. Results of relative immunoreactivity for each of the peptides obtained from this study are shown in Table A using peptide II H as the reference.

[5] = Early HCV Infection panel, n = 9
[6] = Late HCV Infection panel, n = 14

Sequence | % Relative Immunoreactivity [1] | % Relative Immunoreactivity in comparison to Pep2 (232A) [2, 5] | % Relative Immunoreactivity in comparison to Pep2 (232A) [2, 6] | % IP [3] | further results
AYMSKAHGIDPNIRTGVRTITTGSPITYSTYGKFLADGGCSGGAYDIIICDECHSTDAT [262E] | 3.6% |  |  |  | 
CPERLASCRPLTDFDQGWGPISYANGSGPDQRPYCWHYPPKPCGIVPAKSVCGPVYC [231E] |  | 70.9% | 83.4% | 87.6% | 
CRPLTDFDQGWGPISYANGSGPDQRPYCWHYPPKPCGIVPAKSVC [241B] |  | 32.7% | 75.0% | 92.9% | 
CRPLTDFDQGWGPISYANGSGPDQRPYCWHYPPKPCGIVPAKSVCGPVYC [231D] |  | 23.3% | 43.5% | 65.3% | 
DRSGAPTYSWGENDTDVFVLNNTRPPLGNWFGCTWMNSTGFTKVCGAPPC [232D] |  | 50.0% | 46.7% | 25.9% | Absorbance ([4]; Panel I sample 4): 785 mA; result with the remaining 7 panel members ([4]; Panel I without sample 4): negative
EAACNWTRGERCDLEDRDRSELS [234A] |  | 9.5% | 15.7% | 20.5% | A492 nm by EIA (mA) ([3]; Panel II sample CH-1): 118 mA; A492 nm by EIA (mA) ([3]; Panel II sample CH-2): 232 mA; A492 nm by EIA (mA) ([3]; Panel II sample CH-3): 64 mA; A492 nm by EIA (mA) ([3]; Panel II sample CH-4): 227 mA; A492 nm by EIA (mA) ([3]; Panel II sample CH-5): 206 mA; A492 nm by EIA (mA) ([3]; Panel II sample CH-6): 202 mA; A492 nm by EIA (mA) ([3]; Panel II sample CH-7): 151 mA
EVALSTTGEIPFYGKAIPLEVIKGGRHLIFCHSKKKCDEL [261B] | 3.1% |  |  |  | 
FLADGGCSGGAYDIIICDECHSTDATSILGIGTVLDQAETAG [279B] | 3% |  |  |  | 
GCSGGAYDIIICDECHSTDATSILGIGTVLDQAETAG [279A] | 100.0% |  |  |  | 
LHCPTDCFRKHPDATYSRCGSGPWITPRCLVDYPYRLWHWPC [233C] |  | 9.9% | 17.5% | 16.8% | A492 nm by EIA (mA) ([3]; Panel II sample CH-1): 123 mA; A492 nm by EIA (mA) ([3]; Panel II sample CH-2): 174 mA; A492 nm by EIA (mA) ([3]; Panel II sample CH-3): 72 mA; A492 nm by EIA (mA) ([3]; Panel II sample CH-4): 238 mA; A492 nm by EIA (mA) ([3]; Panel II sample CH-5): 114 mA; A492 nm by EIA (mA) ([3]; Panel II sample CH-6): 175 mA; A492 nm by EIA (mA) ([3]; Panel II sample CH-7): 89 mA
PNIRTGVRTITTGSPITYSTYGKFLADGGCSGGAYDIIICDECHSTDAT [262D] | 9.3% |  |  |  | 
QGWGPISYANGSGPDQRPYCWHYPPKPCGIVPAKSVC [241A] |  | 23.9% | 43.8% | 63.9% | 
QGWGPISYANGSGPDQRPYCWHYPPKPCGIVPAKSVCGPVYC [231C] |  | 88.6% | 62.7% | 100.0% | immunopotency index ([4]; Panel I, compared with peptide VIIIE): 13.9%; A492 nm by EIA (mA) ([3]; Panel II sample CH-1): 2237 mA; A492 nm by EIA (mA) ([3]; Panel II sample CH-2): 2472 mA; A492 nm by EIA (mA) ([3]; Panel II sample CH-3): 171 mA; A492 nm by EIA (mA) ([3]; Panel II sample CH-4): 218 mA; A492 nm by EIA (mA) ([3]; Panel II sample CH-5): 311 mA; A492 nm by EIA (mA) ([3]; Panel II sample CH-6): 247 mA; A492 nm by EIA (mA) ([3]; Panel II sample CH-7): 206 mA
RPYCWHYPPKPCGIVPAKSVCGPVYC [231A] |  | 46.8% | 48.4% | 83.2% | 
